Assays:
Candida albicans = assay: Minimal inhibitory concentration (MIC) of AmB, microwell dilution; type: cell-based; conditions: 35° C., 24 hr
Procedure: (§1) AmB in PEO-b-PHSA micelles was dissolved in isotonic sodium chloride solution giving an AmB level of 200 μg/ml. AmB was dissolved in DMSO and diluted further with the isotonic sodium chloride solution to give the same concentration. The level of DMSO in the final solution was <1% v/v. Samples of PEO-b-PHSA micelles in sodium chloride solution were also used as controls. Solutions of 20 μl from these samples were diluted with the culture medium (RPMI 1640) (80 μl) in the first microwell. The next 11 microwells had serial two-fold diluted solutions. To each microwell, 100 μl of the inoculum containing 5×10^3 CFU/ml of fungal pathogen (Candida albicans, Aspergillus fumigatus or Cryptococcus neoformans) in culture medium was added, giving a total volume of 200 μl per well. Microwell containers were incubated at 35° C. for 24 hr. Organism and medium controls were performed simultaneously to check the growth of organisms and sterility of culture medium, respectively. […] All tests were repeated three times.

Aspergillus fumigatus = assay: as above; type: cell-based; conditions: 35° C., 24 hr
Procedure: as §1

Cryptococcus neoformans = assay: as above; type: cell-based; conditions: 35° C., 24 hr
Procedure: as §1

[1] = UV/VIS spectroscopy, I/IV ratio (self-aggregation state of AmB); type: physicochemical; conditions: intensity at 348 nm to 409 nm, 4 μg/ml AmB, PBS pH 7.4
Procedure: Freeze-dried samples of AmB in PEO-b-PHSA micelles with 11 and 70% stearate substitution were dissolved in PBS, pH=7.4, at 4 μg/ml of AmB. DMSO was used to solubilize AmB in PBS, pH=7.4, at a similar concentration. The level of DMSO in the final sample was <1% (v/v). The UV/VIS spectra of AmB in different samples were recorded from 300 nm to 450 nm.

human red blood cells = assay: Hemolytic activity of AmB toward human red blood cells; type: cell-based; conditions: human RBCs, 37° C., 30 min
Procedure: Human blood was collected and centrifuged (2000 rpm). The supernatant and buffy coat were pipetted off and the red blood cells (RBCs) were diluted with an isotonic phosphate buffer, pH 7.4. The proper dilution factor was estimated from the UV/VIS absorbance of hemoglobin at 576 nm in the supernatant after RBCs were lysed by 20 μg/ml of AmB. A properly diluted sample of RBCs gives an absorbance of 0.4-0.5. Solutions of diluted RBCs (2.5 ml) with varied levels of AmB in different samples were incubated at 37° C. for 30 min. Samples were then placed in ice to stop hemolysis. The unlysed RBCs were removed by centrifugation at 14,000 rpm (about 7000×g) for 20 sec. The supernatant was collected and analyzed for hemoglobin by UV/VIS spectroscopy at 576 nm. The percent of hemolyzed RBCs was determined using this equation: % hemolysis=100(Abs−Abso)/(Abs100−Abso), where Abs, Abso and Abs100 are the absorbance for the sample, control with no AmB and control in the presence of 20 μg/ml AmB, respectively.

C[C@@H]1[C@H](O)[C@@H](C)/C=C/C=C/C=C/C=C/C=C/C=C/C=C/[C@H](O[C@@H]2O[C@H](C)[C@@H](O)[C@H](N)[C@@H]2O)C[C@@H]2O[C@](O)(C[C@@H](O)C[C@@H](O)[C@H](O)CC[C@@H](O)C[C@@H](O)CC(=O)O[C@H]1C)C[C@H](O)[C@H]2C(=O)O [AmB, Amphotericin B]
MIC, AmB level inhibiting growth of C. albicans (Candida albicans): 0.3 mg/L
MIC, AmB level inhibiting growth of A. fumigatus (Aspergillus fumigatus): 0.45 mg/L
MIC, AmB level inhibiting growth of C. neoformans (Cryptococcus neoformans): 0.3 mg/L
I/IV ratio [1]: about 1.2
AmB level causing 100% hemolysis (human red blood cells): about 1 μg/ml

From patent publication US6939561B2, “Methods and compositions for polyene antibiotics with reduced toxicity” (Wisconsin Alumni Research Foundation, priority 2001, dated 2005)
